Experimental data taken from patent publication US7163941B2, “Pyrido[2,3-d]pyrimidin-7-carboxylic acid derivatives, their manufacture and use as pharmaceutical agents” (Hoffmann-La Roche Inc., priority 2003, dated 2007).

Experiments:
[1] = target: T1, Src (p60^c-src, partially purified) (Homo sapiens, UniProt P12931); test: SRC-Inhibitor-Assay (time-resolved fluorescence), Src enzyme; type: biochemical; settings: ATP 5 μM, peptide 10 μM, enzyme 2.5 U/ml, pre-incubation 15 min at 15° C.
T1 construct: purchased Upstate (UBI)
Protocol: (§1) The activity of the compounds according to this invention as inhibitors for the src-family tyrosine kinases was shown by using the following assay.
(§2) SRC-Inhibitor-Assay Parameters:
(§3) • Reaction mixture: • ATP 5 μM • Peptide (R+Ja133-Ro): 10 μM • Ja133-Ro 196 nM • Ro 9.8 μM • PT66 230 ng/ml • Assay buffer: 4 mM MgCl2 • 2 mM TCEP • 50 mM HEPES • 0,1% Tween 20 • pH 7.3 • Enzyme: 2.5 U/ml • Inhibitor: max. 25 μM • min. 0.42 nM Material: • Eu-labelled phosphotyrosine antibody: -for Lck Cisbio Mab PT66-K, • for Src EG&G Wallac PT66 Eu-W1024 (all commercially available). • Peptides: Ro: NH2-A-E-E-E-I-Y-G-E-F-E-A-K-K-K-K-CONH2 (SEQ ID NO: 1), and • Ja133-Ro: Ja133-G-Aminocaprylic acid-A-E-E-E-I-Y-G-E-F-E-A-K-K-K-K-CONH2 (SEQ ID NO: 2), wherein Ja133 is LightCycler-Red 640-N-hydroxy succinimide ester; • whereby both peptides were synthesized by an optimized solid phase peptide synthesis protocol (Merrifield, Fed. Proc. Fed. Amer. Soc. Exp. Biol. 21 (1962) 412) on a Zinsser SMP350 peptide synthesizer. Shortly, the peptide was assembled on 160 mg (22.8 μmol scale) of a Rink-Linker modified polystyrene solid phase by repeatedly conjugating an twenty fold excess of aminoacids each protected by temporary piperidine labile Fmoc- and permanent acid labile tert-Bu-, BOC- and Otert-Bu-groups depending on the side chain function. The substrate sequence AEEEIYGEFEAKKKK (SEQ ID NO: 1) was N-terminal additionally mounted with the spacer amino acids Aminocaprylic acid and Glycin. After cleavage of the N-terminal temporary protecting group the still attached and protected peptide was labeled with a 1.5 fold amount of LightCycler-Red 640-N-hydroxy succinimide ester (purchased by Roche Diagnostics GmbH) and triethylamine. After 3 hrs. the resin was washed with Dimethylformamide and Isopropanol until the eluates of the blue resin got colo-rless. […] The substrate was finally isolated by a preparative reverse phase HPLC purification. The purification yielded 12.2 mg RP-HPLC single peak pure blue material (lyophilisate). The identity was proven by MALDI mass spectroscopy [2720.0]. • Enzymes: Upstate Lck (p56^lck, active), Upstate Src (p60^c-src, partially purified) were purchased from UBI. • Time-resolved Fluorescence Assay: Reader: Perkin Elmer, Wallac Viktor 1420-040 multilabel counter; Liquid handling system: Beckman Coulter, Biomek 2000. ATP, Tween 20, HEPES were purchased from Roche Molecular Biochemicals, MgCl2 and MnCl2 were purchased from Merck Eurolab, TCEP was purchased from Pierce, 384 Well low volume fluorescence plates was purchased from Falcon. Assay Description:
(§4) At first the enzyme is pre-incubated for 15 min. at 15° C. in aqueous solution with corresponding amounts of inhibitors according to this invention. Then the phosphorylation reaction is started by adding a reaction mixture, containing ATP, Peptide and PT66, and subsequent shaking. The proceeding of this reaction is immediately monitored using time resolved fluorescence spectroscopy in a suitable well plate reader.
(§5) The IC50-values can be obtained from the reaction rates by using a non-linear curve fit (Excelfit).

Lck (p56^lck, active) = target: T2, Lck (p56^lck, active) (Homo sapiens, UniProt P06239); test: SRC-Inhibitor-Assay (time-resolved fluorescence), Lck enzyme; type: biochemical; settings: ATP 5 μM, peptide 10 μM, enzyme 2.5 U/ml, pre-incubation 15 min at 15° C.
T2 construct: purchased Upstate (UBI)
Protocol: as §1, §2, §3, §4, §5

T1 sequence (P12931 whole entry, species assumed): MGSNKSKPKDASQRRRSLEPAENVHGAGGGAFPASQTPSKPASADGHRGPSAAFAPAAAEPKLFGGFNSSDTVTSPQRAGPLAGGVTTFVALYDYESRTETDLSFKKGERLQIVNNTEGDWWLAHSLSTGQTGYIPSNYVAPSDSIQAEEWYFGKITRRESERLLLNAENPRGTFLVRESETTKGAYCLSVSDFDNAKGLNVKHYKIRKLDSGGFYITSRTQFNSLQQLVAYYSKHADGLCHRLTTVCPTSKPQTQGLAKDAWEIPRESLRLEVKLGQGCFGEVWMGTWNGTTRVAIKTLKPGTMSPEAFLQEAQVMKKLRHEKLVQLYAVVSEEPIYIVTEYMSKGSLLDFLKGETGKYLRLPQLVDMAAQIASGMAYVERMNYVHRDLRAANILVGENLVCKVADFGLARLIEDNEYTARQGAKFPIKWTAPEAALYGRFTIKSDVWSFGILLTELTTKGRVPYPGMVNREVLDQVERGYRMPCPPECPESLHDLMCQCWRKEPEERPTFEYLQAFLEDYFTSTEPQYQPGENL
T2 sequence (P06239 whole entry, species assumed): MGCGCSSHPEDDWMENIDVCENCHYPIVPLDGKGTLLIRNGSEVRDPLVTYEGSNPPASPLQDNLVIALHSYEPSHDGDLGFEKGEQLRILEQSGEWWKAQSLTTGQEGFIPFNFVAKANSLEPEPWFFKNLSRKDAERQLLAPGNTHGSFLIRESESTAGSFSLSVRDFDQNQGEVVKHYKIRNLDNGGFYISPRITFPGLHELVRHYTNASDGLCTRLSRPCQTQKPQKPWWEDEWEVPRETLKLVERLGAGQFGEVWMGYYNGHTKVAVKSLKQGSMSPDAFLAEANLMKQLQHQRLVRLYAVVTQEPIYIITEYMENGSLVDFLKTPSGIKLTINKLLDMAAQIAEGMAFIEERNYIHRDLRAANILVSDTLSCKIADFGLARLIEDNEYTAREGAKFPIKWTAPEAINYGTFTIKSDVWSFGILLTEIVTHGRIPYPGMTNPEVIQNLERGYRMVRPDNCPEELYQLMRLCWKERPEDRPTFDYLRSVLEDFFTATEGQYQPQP

SMILES | IC50 [1] [nM] | IC50 (Lck (p56^lck, active)) [nM]
CC(CN(C)C)NC(=O)c1nc2nc(Nc3ccc(F)cc3)ncc2cc1-c1ccccc1Br (stereo not shown) [Example 3-23, 6-(2-Bromo-phenyl)-2-(4-fluoro-phenylamino)-pyrido[2,3-d]pyrimidine-7-carboxylic acid (2-dimethylamino-1-methyl-ethyl)-amide] | 195 | 573
CNC(=O)CNC(=O)c1nc2nc(Nc3ccc(F)cc3)ncc2cc1-c1ccccc1Br [Example 3-24, 6-(2-Bromo-phenyl)-2-(4-fluoro-phenylamino)-pyrido[2,3-d]pyrimidine-7-carboxylic acid methylcarbamoylmethyl-amide] | 130 | 206
O=C(NCCN1CCNC1=O)c1nc2nc(Nc3ccc(F)cc3)ncc2cc1-c1ccccc1Br [Example 3-25, 6-(2-Bromo-phenyl)-2-(4-fluoro-phenylamino)-pyrido[2,3-d]pyrimidine-7-carboxylic acid[2-(2-oxo-imidazolidin-1-yl)-ethyl]-amide] | 157 | 370
O=C(NCCCN1CCCC1=O)c1nc2nc(Nc3ccc(F)cc3)ncc2cc1-c1ccccc1Br [Example 3-26, 6-(2-Bromo-phenyl)-2-(4-fluoro-phenylamino)-pyrido[2,3-d]pyrimidine-7-carboxylic acid [3-(2-oxo-pyrrolidin-1-yl)-propyl]-amide] | 197 | 275
CC(CNC(=O)c1nc2nc(Nc3ccc(F)cc3)ncc2cc1-c1ccccc1Br)N(C)C (stereo not shown) [Example 3-27, 6-(2-Bromo-phenyl)-2-(4-fluoro-phenylamino)-pyrido[2,3-d]pyrimidine-7-carboxylic acid (2-dimethylamino-propyl)-amide] | 23.9 | 129
O=C(N[C@H]1CCNC1)c1nc2nc(Nc3ccc(F)cc3)ncc2cc1-c1ccccc1Br [Example 3-28, (S)-6-(2-Bromo-phenyl)-2-(4-fluoro-phenylamino)-pyrido[2,3-d]pyrimidine-7-carboxylic acid pyrrolidin-3-ylamide] | 19.3 | 62.7
O=C(N[C@@H]1CCNC1)c1nc2nc(Nc3ccc(F)cc3)ncc2cc1-c1ccccc1Br [Example 3-29, (R)-6-(2-Bromo-phenyl)-2-(4-fluoro-phenylamino)-pyrido[2,3-d]pyrimidine-7-carboxylic acid pyrrolidin-3-ylamide] | 103 | 429
CN(C)C(=O)CNC(=O)c1nc2nc(Nc3ccc(F)cc3)ncc2cc1-c1ccccc1Br [Example 3-30, 6-(2-Bromo-phenyl)-2-(4-fluoro-phenylamino)-pyrido[2,3-d]pyrimidine-7-carboxylic acid dimethylcarbamoylmethyl-amide] | 247 | 151
CNCCCNC(=O)c1nc2nc(Nc3ccc(F)cc3)ncc2cc1-c1ccccc1Br [Example 3-31, 6-(2-Bromo-phenyl)-2-(4-fluoro-phenylamino)-pyrido[2,3-d]pyrimidine-7-carboxylic acid (3-methylamino-propyl)-amide] | 42.8 | 100
O=C(NCCCN1CCOCC1)c1nc2nc(Nc3ccc(F)cc3)ncc2cc1-c1ccccc1Br [Example 3-32, 6-(2-Bromo-phenyl)-2-(4-fluoro-phenylamino)-pyrido[2,3-d]pyrimidine-7-carboxylic acid (3-morpholin-4-yl-propyl)-amide] | 117 | 195
CN1CCCC1CCNC(=O)c1nc2nc(Nc3ccc(F)cc3)ncc2cc1-c1ccccc1Br (stereo not shown) [Example 3-33, 6-(2-Bromo-phenyl)-2-(4-fluoro-phenylamino)-pyrido[2,3-d]pyrimidine-7-carboxylic acid [2-(1-methyl-pyrrolidin-2-yl)-ethyl]-amide] | 44.7 | 96.9
O=C(N[C@@H]1CCCNC1)c1nc2nc(Nc3ccc(F)cc3)ncc2cc1-c1ccccc1Br [Example 3-34, (R)-6-(2-Bromo-phenyl)-2-(4-fluoro-phenylamino)-pyrido[2,3-d]pyrimidine-7-carboxylic acid piperidin-3-ylamide] | 97.9 | 127
O=C(NC1CN2CCC1CC2)c1nc2nc(Nc3ccc(F)cc3)ncc2cc1-c1ccccc1Br (stereo not shown) [Example 3-35, 6-(2-Bromo-phenyl)-2-(4-fluoro-phenylamino)-pyrido[2,3-d]pyrimidine-7-carboxylic acid (1-aza-bicyclo[2.2.2]oct-3-yl)-amide] | 73.1 | 251
O=C(NCCNc1ccccn1)c1nc2nc(Nc3ccc(F)cc3)ncc2cc1-c1ccccc1Br [Example 3-36, 6-(2-Bromo-phenyl)-2-(4-fluoro-phenylamino)-pyrido[2,3-d]pyrimidine-7-carboxylic acid [2-(pyridin-2-ylamino)-ethyl]-amide] | 165 | 256
NS(=O)(=O)CCNC(=O)c1nc2nc(Nc3ccc(F)cc3)ncc2cc1-c1ccccc1Br [Example 3-37, 6-(2-Bromo-phenyl)-2-(4-fluoro-phenylamino)-pyrido[2,3-d]pyrimidine-7-carboxylic acid (2-sulfamoyl-ethyl)-amide] | 21 | 189
O=C(NCCCO)c1nc2nc(Nc3ccc(F)cc3)ncc2cc1-c1ccccc1Br [Example 3-38, 6-(2-Bromo-phenyl)-2-(4-fluoro-phenylamino)-pyrido[2,3-d]pyrimidine-7-carboxylic acid (3-hydroxy-propyl)-amide] | 91.8 | 456
O=C(NCCc1cnc[nH]1)c1nc2nc(Nc3ccc(F)cc3)ncc2cc1-c1ccccc1Br [Example 3-39, 6-(2-Bromo-phenyl)-2-(4-fluoro-phenylamino)-pyrido[2,3-d]pyrimidine-7-carboxylic acid [2-(3H-imidazol-4-yl)-ethyl]-amide] | 24.3 | 114
C[S+]([O-])CCNC(=O)c1nc2nc(Nc3ccc(F)cc3)ncc2cc1-c1ccccc1Br (stereo not shown) [Example 3-40, 6-(2-Bromo-phenyl)-2-(4-fluoro-phenylamino)-pyrido[2,3-d]pyrimidine-7-carboxylic acid (2-methanesulfinyl-ethyl)-amide] | 149 | 584
Cc1cc(CNC(=O)c2nc3nc(Nc4ccc(F)cc4)ncc3cc2-c2ccccc2Br)nn1C [Example 3-41, 6-(2-Bromo-phenyl)-2-(4-fluoro-phenylamino)-pyrido[2,3-d]pyrimidine-7-carboxylic acid (1,5-dimethyl-1H-pyrazol-3-ylmethyl)-amide] | 26 | 126
NC(=O)c1c[nH]nc1NC(=O)c1nc2nc(Nc3ccc(F)cc3)ncc2cc1-c1ccccc1Br [Example 3-42, 6-(2-Bromo-phenyl)-2-(4-fluoro-phenylamino)-pyrido[2,3-d]pyrimidine-7-carboxylic acid (4-carbamoyl-1H-pyrazol-3-yl)-amide] | 56.3 | 694
O=C(NCC[S+]([O-])CCO)c1nc2nc(Nc3ccc(F)cc3)ncc2cc1-c1ccccc1Br (stereo not shown) [Example 3-43, 6-(2-Bromo-phenyl)-2-(4-fluoro-phenylamino)-pyrido[2,3-d]pyrimidine-7-carboxylic acid [2-(2-hydroxy-ethanesulfinyl)-ethyl]-amide] | 129 | 809
CNCCNC(=O)c1nc2nc(Nc3ccc(N4CCOCC4)cc3)ncc2cc1-c1ccccc1Br [Example 3-44, 6-(2-Bromo-phenyl)-2-(4-morpholin-4-yl-phenylamino)-pyrido[2,3-d]pyrimidine-7-carboxylic acid (2-methylamino-ethyl)-amide] | 1 | 2.5
O=C(NCCO)c1nc2nc(Nc3ccc(F)cc3)ncc2cc1-c1ccccc1Br [Example 3-45, 6-(2-Bromo-phenyl)-2-(4-fluoro-phenylamino)-pyrido[2,3-d]pyrimidine-7-carboxylic acid (2-hydroxy-ethyl)-amide] | 21.5 | 155
